Measured values reported in US5491220A, “Surface loop structural analogues of fibroblast growth factors” (Yeda Research and Development Co., Ltd., priority 1994, dated 1996).

What was measured:
[1] = tested on: soluble FGF receptor 1 (FGFR-1; flg); test: Competition binding to soluble FGFR1 (displacement of 125I-FGF-2); design: species or system murine; conditions: 200 ng/ml heparin
Method: (§1) Binding of FGF proteins to different FGF receptors are determined in this example, by measuring the degree of competition for binding to different types of FGF-receptor proteins between a radioiodinated FGF protein and various unlabelled proteins, or by the direct binding of radioiodinated FGF's to various receptor proteins. Binding studies are confirmed by chemical cross-linking of the radioiodinated FGF to soluble receptors in the presence and absence of excess unlabelled FGF.
(§2) Soluble FGF receptor proteins are constructed by cloning of the extracellular region of murine FGF receptor 1 (FGFR-1; flg), FGF receptor 2 (FGFR-2; bek) or the KGF receptor (FGFR(IIIb); K-sam) into the alkaline phosphatase-tag expression vector, which encodes for a secreted form of placental alkaline phosphatase (AP). The FGF receptor alkaline phosphatase (FRAP) plasmids are cotransfected into NIH 3T3 cells by electroporation with a selectable neomycin resistance gene. Clonies are selected in G418 (600 μg/ml) and screened for secreted AP enzyme activity in the conditioned medium. Clones of each receptor which produced a high level of AP activity (2 to 4 A405 units/min/ml) are then used to produce conditioned medium for binding assays.
(§3) Components of the soluble receptor binding reaction mixture include FRAP-conditioned medium (0.24 OD units/min), 2 ng/ml^125 I-FGFs and 200 ng/ml heparin. The FGF:heparin:FRAP terniary complex is immunoprecipitated with 20 μl of a 1:1 slurry of anti-AP monoclonal antibodies coupled to protein A Sepharose®. All components are mixed at room temperature. The total volume is adjusted to 200 μl by addition of DMEM containing 0.1% bovine serum albumin. Binding is allowed to proceed for 1 to 2 hours at 24° C., after which time bound receptor complex or the ligand is recovered by centrifugation at 4° C. (10 s at 2,000×g). The pelleted material is washed twice with 500 μl of an ice cold buffer containing HEPES (20 mM), NaCl (150 mM), glycerol (10%) and Triton® X-100 (1%). ^125 I-FGF binding is quantitated by counting of the samples in a gamma counter (LKB). Alternatively, AP enzyme activity of the FRAP protein is determined by transferring the FRAP receptor bound to […] to a flat-bottom microtiter plate in a volume of 50 μl of PBS. The reaction is initiated by addition of substrate (50 μl of 2× solution of AP assay buffer containing 2M diethanoiamine, 1 mM MgCl2, 20 mM homoarginine and 12 mM p-nitrophenyl phosphate). The reaction is followed at room temperature at 405 nm in a kinetic microplate reader.

[2] = tested on: FGFR2(IIIb) (FGF-7 or KGF receptor); test: Competition binding to soluble FGFR2(IIIb) (displacement of 125I-FGF-7); design: species or system murine
Method: as §1, §2, §3

[3] = tested on: FGF receptor type 1 (FGFR1); test: Competition binding to FGF-receptor type 1 on NIH 3T3 cells; conditions: compared with FGF-2
[4] = tested on: FGF receptor on BHK cells; test: Competition for 125I-FGF-2 binding to baby hamster kidney (BHK) cells; conditions: 50 pM 125I-FGF-2; compared with FGF-2
Method: FGF-2LI and FGF-2LA are tested for their capacity to compete for the binding of ^125 I-FGF-2 (Amersham Corp.) to baby hamster kidney (BHK) cells, which express high numbers of FGF receptor. The assay employed is described by Moscatelli (J. Cell. Physiol. 131: 123-130 (1987)). Briefly stated, BHK cells plated on 24-well plates are incubated with 50 pM ^125 I-FGF-2 with serial dilutions of unlabelled FGF-2, FGF-2LI or FGF-2LA loop mutants at room temperature for 1 hour or at 4° C. for 2 hours. The cells are then incubated at 4° C. for 30 minutes, washed twice with phosphate-buffered saline and treated with 20 mM HEPES (N-2-hydroxyethyl-piperazine-N'-2-ethanesulfonic acid), pH 7.5, containing 2M NaCl to remove ^125 I-FGF-2 bound to low affinity heparin sulfate binding sites. Receptor bound ^125 I-FGF-2 is recovered by treatment of the cells with 0.5% Triton X-100 in 0.1M sodium phosphate, pH 8, and counted in a γ-counter. Assays are conducted in duplicate.

[5] = Affinity for immobilized heparin (NaCl elution from heparin column); format: binding; conditions: TSK-heparin column
Method: Cells from 1 liter cultures are harvested by centrifugation, resuspended in 30 ml of 50 mM Tris-HCl, pH 7.5 containing 0.1 mM EDTA and 0.6M NaCl, and disrupted by treatment with lysozyme (10 μg/ml) for 20 min at 4° C. followed by sonication (6×30 sec pulses). The lysates are clarified by centrifugation (10,000×g; 20 min) and the supernatant solutions incubated with 5 ml of hydrated heparin Sepharose (Pharmacia/LKB) at 4° C. for 1 hour with constant rotation. The resin is isolated by filtration on 0.8 μm filter apparatus (Nalgene), washed extensively with 10 mM Tris-HCl pH 7.4 containing 0.6M NaCl and bound protein eluted with Tris buffer containing 3M NaCl (25 ml). The 3M NaCl eluent is diluted 6-fold with Tris buffer and loaded onto a TSK heparin 5PW column (0.21×15 cm; The Nest Group, MA) and the column developed using a linear NaCl gradient (0.6 to 2M) in 90 min at a flow rate of […].
NaCl elution from heparin-Sepharose® is about 0.7M NaCl, compared with 1.4M NaCl for the wild-type protein. The molarity of NaCl required to elute the LK mutant is similar to that required to elute FGF-7.

[6] = tested on: cell-associated urokinase-type plasminogen activator (uPA) activity in ABAE cells; test: Urokinase-type plasminogen activator induction in ABAE cells; format: cell-based, bovine; conditions: 24 hours, compared with FGF-2
Method: Urokinase-type plasminogen activator induction by the FGF mutants is evaluated. Adult bovine aortic endothelial (ABAE) cells are seeded at 20,000 cells/well in 96-well plates and maintained in DMEM containing 10% calf serum (Hyclone, Logan, Utah) supplemented with penicillin (100 units/ml), streptomycin (100 μg/ml) and L-glutamine (2 mM) and different concentrations of FGF-2 or mutants. After 24 hours, the cells are washed with phosphate-buffered saline and lysed in 60 mM Tris-HCl, pH 8.5, containing 0.05% Triton® X-100. Cell-associated urokinase-type plasminogen activator (uPA) activity is measured as described by Presta, et al., cited above, using the plasmin chromogenic substrate D-norleucyl-hexahydrotyrosyllysine p-nitroanilide acetate (American Diagnostics, Greenwich, Conn.). Cell-associated protein concentrations are determined using Coomassie blue binding to protein. The results are plotted in FIG. 5.

Row | Substance | Binding to soluble FGFR1 (competition with 125I-FGF-2) [1] | Binding to FGFR2(IIIb), times less than that of FGF-7 or FGF-1 [2] | Competition binding curve to FGF receptor type 1 on NIH 3T3 cells [3] | Capacity to compete with 125I-FGF-2 binding to FGF receptors on BHK cells [4] | NaCl concentration at elution from TSK-heparin column [5] | Capability to induce urokinase-type plasminogen activator [6] | Binding to soluble FGFR2(IIIb) (competition with 125I-FGF-7) ([2]; 200 ng/ml heparin)
1 | FGF-2LA: human FGF-2 with loop residues 118-122 replaced by Lys-Lys-His-Ala-Glu-Lys-His from bovine FGF-1 (SEQ ID NO 16) (KKHAEKH; printed: Lys-Lys-His-Ala-Glu-Lys-His) | bind equally well | about 5 times | identical to that for FGF-2 | similar | about 1.5 M | significantly reduced | 
2 | FGF-2LI: human FGF-2 with loop residues 118-122 replaced by Ala-Gln-Phe-Pro-Asn from human interleukin-1β (SEQ ID NO 15) | bind equally well |  | identical to that for FGF-2 | similar | about 1.5 M | significantly reduced | do not bind
